# Target: T1, D(2) dopamine receptor (Rattus norvegicus, UniProt P61169)
# Assay: Compound was evaluated for binding affinity towards dopamine receptor D2 in striatal membranes, using [3H]- spiperone as radioligand in the presence of sodium chloride
# Type: cell membranes
# T1 sequence (P61169 whole entry): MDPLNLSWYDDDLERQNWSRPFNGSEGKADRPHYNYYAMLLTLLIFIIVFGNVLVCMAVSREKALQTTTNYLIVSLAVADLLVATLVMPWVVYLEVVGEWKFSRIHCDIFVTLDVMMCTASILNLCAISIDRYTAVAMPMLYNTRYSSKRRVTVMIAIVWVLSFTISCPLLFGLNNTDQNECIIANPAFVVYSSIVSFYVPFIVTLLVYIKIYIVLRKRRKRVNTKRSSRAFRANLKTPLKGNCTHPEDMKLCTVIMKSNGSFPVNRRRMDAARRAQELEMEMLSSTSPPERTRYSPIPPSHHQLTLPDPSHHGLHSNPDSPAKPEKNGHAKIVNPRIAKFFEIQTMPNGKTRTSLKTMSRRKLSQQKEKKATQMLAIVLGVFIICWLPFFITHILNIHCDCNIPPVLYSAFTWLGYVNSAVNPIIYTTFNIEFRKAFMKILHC
row,Compound,Ki [nM]
1,CCN1CCC[C@H]1CNC(=O)c1c(O)c(CCF)cc(OC)c1OC,0.24
2,CCN1CCC[C@H]1CNC(=O)c1cc(CCF)cc(OC)c1OC,1.41
3,CCN1CCC[C@H]1CNC(=O)c1cc(I)cc(OC)c1OC [EPIDEPRIDE],0.27
4,CCN1CCC[C@H]1CNC(=O)c1cc(Br)cc(OC)c1OC,0.2
5,CCN1CCC[C@H]1CNC(=O)c1cc(CCCF)cc(OC)c1OC,1.17
6,CCN1CCC[C@H]1CNC(=O)c1c(O)c(CCCF)cc(OC)c1OC,0.25

# Target: T2, Adrenergic receptor alpha-2 (Rattus norvegicus, UniProt P22086+P19328+P22909)
# T2 sequence (P22086 whole entry): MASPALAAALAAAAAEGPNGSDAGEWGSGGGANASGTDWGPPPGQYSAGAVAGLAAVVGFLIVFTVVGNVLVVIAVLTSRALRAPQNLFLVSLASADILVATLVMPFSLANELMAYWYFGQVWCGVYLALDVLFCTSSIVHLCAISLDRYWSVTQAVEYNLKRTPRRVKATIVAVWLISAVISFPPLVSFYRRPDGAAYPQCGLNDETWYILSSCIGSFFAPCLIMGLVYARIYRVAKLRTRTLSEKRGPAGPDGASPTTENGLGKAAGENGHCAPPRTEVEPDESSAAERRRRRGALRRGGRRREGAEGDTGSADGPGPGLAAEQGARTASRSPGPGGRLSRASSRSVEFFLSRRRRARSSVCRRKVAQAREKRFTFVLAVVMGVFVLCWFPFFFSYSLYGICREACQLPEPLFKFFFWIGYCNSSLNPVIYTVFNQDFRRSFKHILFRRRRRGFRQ
# T2 sequence (P19328 whole entry): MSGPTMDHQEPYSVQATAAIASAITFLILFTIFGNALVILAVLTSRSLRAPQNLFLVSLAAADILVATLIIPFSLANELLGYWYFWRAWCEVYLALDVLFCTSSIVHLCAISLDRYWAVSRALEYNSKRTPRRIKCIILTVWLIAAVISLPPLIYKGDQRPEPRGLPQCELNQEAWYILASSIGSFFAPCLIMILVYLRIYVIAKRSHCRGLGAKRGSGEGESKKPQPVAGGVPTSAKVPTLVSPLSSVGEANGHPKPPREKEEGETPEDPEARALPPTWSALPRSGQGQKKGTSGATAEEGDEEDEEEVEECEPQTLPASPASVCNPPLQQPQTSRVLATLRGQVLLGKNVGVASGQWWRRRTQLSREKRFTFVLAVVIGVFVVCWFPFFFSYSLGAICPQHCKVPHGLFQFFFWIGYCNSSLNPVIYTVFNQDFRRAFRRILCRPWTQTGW
# T2 sequence (P22909 whole entry): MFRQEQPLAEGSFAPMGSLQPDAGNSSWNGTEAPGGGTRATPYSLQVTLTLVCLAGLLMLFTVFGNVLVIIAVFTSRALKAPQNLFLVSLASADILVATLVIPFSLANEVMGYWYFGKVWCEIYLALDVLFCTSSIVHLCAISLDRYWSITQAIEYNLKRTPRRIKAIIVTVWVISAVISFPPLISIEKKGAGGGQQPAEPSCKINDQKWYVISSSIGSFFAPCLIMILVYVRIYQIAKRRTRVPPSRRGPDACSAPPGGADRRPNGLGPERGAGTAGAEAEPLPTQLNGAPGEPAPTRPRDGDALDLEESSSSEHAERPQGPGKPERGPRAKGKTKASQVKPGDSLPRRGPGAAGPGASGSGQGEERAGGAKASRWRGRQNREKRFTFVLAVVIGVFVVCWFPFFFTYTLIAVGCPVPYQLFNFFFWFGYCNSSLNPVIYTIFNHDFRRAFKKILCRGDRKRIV
# Assay: binding affinity towards alpha-2 adrenergic receptor, using [3H]- atipamezole as radioligand from rat frontal cortex membranes
# Type: tissue-based
row,Compound,Ki [nM]
1,CCN1CCC[C@H]1CNC(=O)c1c(O)c(CCF)cc(OC)c1OC,9.5
2,CCN1CCC[C@H]1CNC(=O)c1cc(I)cc(OC)c1OC [EPIDEPRIDE],5
3,CCN1CCC[C@H]1CNC(=O)c1c(O)c(CCCF)cc(OC)c1OC,11.1

# Target: T1, D(2) dopamine receptor
# Assay: Displacement of [3H]- spiperone from dopamine receptor D2 of striatal membranes without sodium chloride
row,Compound,Ki [nM]
1,CCN1CCC[C@@H]1CNC(=O)c1cc(CCF)cc(OC)c1OC,> 10000
2,CCN1CCC[C@H]1CNC(=O)c1c(O)c(CCF)cc(OC)c1OC,0.77
3,CCN1CCC[C@H]1CNC(=O)c1cc(CCF)cc(OC)c1OC,5.27
4,CCN1CCC[C@@H]1CNC(=O)c1c(O)c(CCCF)cc(OC)c1OC,> 10000
5,CCCc1cc(OC)c(OC)c(C(=O)NC[C@@H]2CCCN2CC)c1,6.98
6,CCN1CCC[C@H]1CNC(=O)c1cc(Br)cc(OC)c1OC,0.76
7,CCN1CCC[C@H]1CNC(=O)c1cccc(OC)c1OC,66
8,CCCc1cc(OC)c(OC)c(C(=O)NC[C@@H]2CCCN2CC)c1O,1.28
9,CCN1CCC[C@H]1CNC(=O)c1cc(CCCF)cc(OC)c1OC,4.4
10,CCN1CCC[C@H]1CNC(=O)c1c(O)c(CCCF)cc(OC)c1OC,0.8

# — ChEMBL document CHEMBL1125692 (J Med Chem, 1991)
